Data from patent publication US6569637B1, “Diagnostic reagents for renal function disorders and method for analyzing urine samples” (Kikkoman Corporation, priority 1997, dated 2003).

Set-up: species or system patient
Details: in vivo
Procedure: An ATP standard reagent was prepared by dissolving sodium salt of ATP in 25 mM HEPES buffer (pH7.75) at a concentration of 2×10^−6M.
Two-hundreds μl of a urine sample obtained from a patient suffering from renal dysfunction who received cisplatin administration was added and reacted with 200 μl of the ATP standard reagent prepared as described above at 37° C. for 30 minutes.
The solution was 10-fold diluted with 20 mM phosphate buffer (pH7.5), and 200 μl of the diluted solution was transferred into a test tube for ATP measurement. Then, 100 μl of luciferin-luciferase luminescent reagent which had been prepared by dissolving the freeze-dried luminescent reagent (included in ATP assay kit “CheckLite™” available from Kikkoman Corporation) in a solution for dissolving the reagent (also included in the kit) was added to the solution in the tube. The luminescent level based on the ATP level remaining after the reaction was immediately determined using Lumitester K-210.
On the other hand, the luminescent level corresponding to the ATP level in a urine sample before the reaction was determined in the same matter.
Diagnosis of renal dysfunction by ATP method was performed by calculating the ATP index (residual ATP %) according to the equation below and determining whether the subject is a patient with renal dysfunction S or a healthy individual R according to the following criteria. […]

Q: For N.N.[Cl][Pt][Cl] [cisplatin], which “residual ATP % in urine sample (ATP index)” value is on record?
A: The value was “decreases to the minimum”.
